Source: the NIST ThermoML archive (doi:10.1016/j.tca.2009.07.002)
Numbers after ± are expanded uncertainties.

Assay: xn = mol fraction of the nth substance listed
Conditions: 101 kPa, Liquid, Vibrating tube method

CCCCO [butan-1-ol] + CCCCCCC
mass density [kg/m3]
Conditions	288.15 K	293.15 K	298.15 K	303.15 K	308.15 K	313.15 K	318.15 K	323.15 K
x1 = 0.0691	692.997 ± 0.23	688.732 ± 0.23	684.439 ± 0.23	680.112 ± 0.23	675.754 ± 0.24	671.356 ± 0.24	666.921 ± 0.24	662.457 ± 0.24
x1 = 0.0999	695.43 ± 0.23	691.164 ± 0.23	686.867 ± 0.23	682.541 ± 0.23	678.179 ± 0.24	673.778 ± 0.24	669.334 ± 0.24	664.851 ± 0.24
x1 = 0.1495	699.575 ± 0.23	695.309 ± 0.23	691.013 ± 0.23	686.688 ± 0.23	682.323 ± 0.23	677.919 ± 0.24	673.469 ± 0.24	668.978 ± 0.24
x1 = 0.1701	701.352 ± 0.23	697.089 ± 0.23	692.795 ± 0.23	688.469 ± 0.23	684.105 ± 0.23	679.699 ± 0.23	675.246 ± 0.24	670.749 ± 0.24
x1 = 0.2	703.971 ± 0.23	699.708 ± 0.23	695.42 ± 0.23	691.091 ± 0.23	686.729 ± 0.23	682.324 ± 0.23	677.872 ± 0.24	673.376 ± 0.24
x1 = 0.2497	708.55 ± 0.22	704.296 ± 0.23	700.016 ± 0.23	695.692 ± 0.23	691.331 ± 0.23	686.93 ± 0.23	682.482 ± 0.23	677.987 ± 0.24
x1 = 0.2507	708.652 ± 0.22	704.392 ± 0.23	700.109 ± 0.23	695.793 ± 0.23	691.434 ± 0.23	687.035 ± 0.23	682.589 ± 0.23	678.099 ± 0.24
x1 = 0.2999	713.405 ± 0.22	709.158 ± 0.22	704.88 ± 0.23	700.571 ± 0.23	696.222 ± 0.23	691.828 ± 0.23	687.391 ± 0.23	682.909 ± 0.23
x1 = 0.3501	718.522 ± 0.22	714.283 ± 0.22	710.016 ± 0.22	705.715 ± 0.22	701.373 ± 0.23	696.989 ± 0.23	692.557 ± 0.23	688.076 ± 0.23
x1 = 0.3998	723.818 ± 0.22	719.595 ± 0.22	715.341 ± 0.22	711.055 ± 0.22	706.726 ± 0.22	702.355 ± 0.23	697.935 ± 0.23	693.471 ± 0.23
x1 = 0.4497	729.369 ± 0.21	725.163 ± 0.22	720.925 ± 0.22	716.653 ± 0.22	712.34 ± 0.22	707.984 ± 0.22	703.577 ± 0.23	699.118 ± 0.23
x1 = 0.4999	735.288 ± 0.21	731.11 ± 0.21	726.892 ± 0.22	722.64 ± 0.22	718.343 ± 0.22	714.006 ± 0.22	709.618 ± 0.22	705.176 ± 0.23
x1 = 0.5516	741.637 ± 0.21	737.484 ± 0.21	733.291 ± 0.21	729.062 ± 0.21	724.793 ± 0.22	720.478 ± 0.22	716.114 ± 0.22	711.695 ± 0.22
x1 = 0.6497	754.667 ± 0.2	750.57 ± 0.21	746.442 ± 0.21	742.276 ± 0.21	738.07 ± 0.21	733.819 ± 0.21	729.516 ± 0.22	725.167 ± 0.22
x1 = 0.6999	761.833 ± 0.2	757.773 ± 0.2	753.681 ± 0.21	749.559 ± 0.21	745.39 ± 0.21	741.178 ± 0.21	736.918 ± 0.21	732.609 ± 0.21
x1 = 0.7502	769.372 ± 0.2	765.348 ± 0.2	761.298 ± 0.2	757.214 ± 0.2	753.09 ± 0.21	748.919 ± 0.21	744.697 ± 0.21	740.419 ± 0.21
x1 = 0.7999	777.249 ± 0.2	773.267 ± 0.2	769.263 ± 0.2	765.22 ± 0.2	761.14 ± 0.2	757.016 ± 0.2	752.839 ± 0.21	748.617 ± 0.21
x1 = 0.8498	785.51 ± 0.19	781.573 ± 0.2	777.613 ± 0.2	773.62 ± 0.2	769.591 ± 0.2	765.519 ± 0.2	761.397 ± 0.2	757.222 ± 0.21
x1 = 0.9006	794.437 ± 0.19	790.548 ± 0.19	786.635 ± 0.19	782.692 ± 0.2	778.716 ± 0.2	774.698 ± 0.2	770.631 ± 0.2	766.522 ± 0.2
x1 = 1	813.373 ± 0.18	809.573 ± 0.18	805.762 ± 0.18	801.923 ± 0.18	798.053 ± 0.19	794.147 ± 0.19	790.231 ± 0.19	786.238 ± 0.19

NC1CCCCC1 [cyclohexylamine] + CCCCO
mass density [kg/m3]
Conditions	288.15 K	293.15 K	298.15 K	303.15 K	308.15 K	313.15 K	318.15 K	323.15 K
x2 = 0	871.29 ± 0.3	866.747 ± 0.3	862.207 ± 0.3	857.671 ± 0.3	853.138 ± 0.3	848.607 ± 0.3	844.073 ± 0.3	839.547 ± 0.3
x2 = 0.0499	870.402 ± 0.29	865.907 ± 0.29	861.409 ± 0.29	856.914 ± 0.29	852.415 ± 0.29	847.912 ± 0.29	843.406 ± 0.29	838.847 ± 0.29
x2 = 0.1019	869.284 ± 0.28	864.828 ± 0.28	860.372 ± 0.28	855.914 ± 0.28	851.45 ± 0.28	846.979 ± 0.28	842.499 ± 0.29	838.018 ± 0.29
x2 = 0.1499	868.221 ± 0.27	863.8 ± 0.27	859.375 ± 0.28	854.945 ± 0.28	850.509 ± 0.28	846.063 ± 0.28	841.605 ± 0.28	837.144 ± 0.28
x2 = 0.1997	867.037 ± 0.27	862.648 ± 0.27	858.251 ± 0.27	853.85 ± 0.27	849.438 ± 0.27	845.013 ± 0.27	840.578 ± 0.27	836.136 ± 0.27
x2 = 0.2995	864.139 ± 0.25	859.8 ± 0.25	855.453 ± 0.25	851.095 ± 0.25	846.722 ± 0.25	842.337 ± 0.25	837.935 ± 0.25	833.516 ± 0.26
x2 = 0.4	860.506 ± 0.23	856.206 ± 0.23	851.899 ± 0.24	847.581 ± 0.24	843.244 ± 0.24	838.892 ± 0.24	834.521 ± 0.24	830.136 ± 0.24
x2 = 0.4994	855.958 ± 0.22	851.708 ± 0.22	847.444 ± 0.22	843.167 ± 0.22	838.874 ± 0.23	834.561 ± 0.23	830.229 ± 0.23	825.872 ± 0.23
x2 = 0.6006	850.147 ± 0.21	845.964 ± 0.21	841.767 ± 0.21	837.554 ± 0.21	833.322 ± 0.21	829.067 ± 0.22	824.783 ± 0.22	820.478 ± 0.22
x2 = 0.6977	843.134 ± 0.2	839.036 ± 0.2	834.924 ± 0.2	830.791 ± 0.2	826.637 ± 0.2	822.458 ± 0.21	818.247 ± 0.21	814.01 ± 0.21
x2 = 0.7497	838.964 ± 0.2	834.921 ± 0.2	830.861 ± 0.2	826.78 ± 0.2	822.671 ± 0.2	818.541 ± 0.2	814.376 ± 0.2	810.181 ± 0.21
x2 = 0.7984	834.505 ± 0.19	830.511 ± 0.19	826.498 ± 0.19	822.464 ± 0.2	818.404 ± 0.2	814.315 ± 0.2	810.191 ± 0.2	806.034 ± 0.2
x2 = 0.85	829.604 ± 0.19	825.664 ± 0.19	821.703 ± 0.19	817.72 ± 0.19	813.708 ± 0.19	809.66 ± 0.2	805.587 ± 0.2	801.472 ± 0.2
x2 = 0.8993	824.498 ± 0.18	820.606 ± 0.19	816.697 ± 0.19	812.762 ± 0.19	808.799 ± 0.19	804.804 ± 0.19	800.769 ± 0.2	796.696 ± 0.2
x2 = 0.9508	819.064 ± 0.18	815.223 ± 0.18	811.359 ± 0.19	807.471 ± 0.19	803.552 ± 0.19	799.601 ± 0.19	795.606 ± 0.19	791.569 ± 0.19
